Consider 1 compound from ChEMBL document CHEMBL2062425, “Synthesis and in vitro evaluation of α-synuclein ligands” (Bioorg Med Chem, 2012).

Each structure is given as a SMILES string.

For the assay, the target named is Alpha-synuclein (Homo sapiens, UniProt P37840). As to the kind of experiment: biochemical.

The IC50 is the point on the concentration scale where inhibition reaches its midpoint. Read a low IC50 as higher potency. The Ki is a measure of affinity in units of concentration, obtained from inhibition or displacement. In turn, `c1ccc2c(c1)Nc1ccccc1S2` [PHENOTHIAZINE] gave an IC50 of 26 µM and a Ki above 0.5 µM.
